Test results from paper PMC6333442, “Conserved allosteric pathways for activation of TRPV3 revealed through engineering vanilloid-sensitivity” (eLife, 2019).
Substitutions are numbered along the chain they refer to.

How the values were obtained:
[1] = molecular target: T1, mouse TRPV3-4M (F522S/L557M/A560T/Q580E) (Mus musculus, UniProt Q8K424, A560T/F522S/L557M/Q580E); test: Two-electrode voltage clamp, TRPV3-4M in oocytes; assay type: cell-based; settings: RTx 100 nM, 2-APB 3 mM, room temperature, ±60 mV
T1 construct: expressed in transfected cells; host or cells: Xenopus laevis oocytes
T1 sequence (Q8K424 1-791 F522S/L557M/A560T/Q580E): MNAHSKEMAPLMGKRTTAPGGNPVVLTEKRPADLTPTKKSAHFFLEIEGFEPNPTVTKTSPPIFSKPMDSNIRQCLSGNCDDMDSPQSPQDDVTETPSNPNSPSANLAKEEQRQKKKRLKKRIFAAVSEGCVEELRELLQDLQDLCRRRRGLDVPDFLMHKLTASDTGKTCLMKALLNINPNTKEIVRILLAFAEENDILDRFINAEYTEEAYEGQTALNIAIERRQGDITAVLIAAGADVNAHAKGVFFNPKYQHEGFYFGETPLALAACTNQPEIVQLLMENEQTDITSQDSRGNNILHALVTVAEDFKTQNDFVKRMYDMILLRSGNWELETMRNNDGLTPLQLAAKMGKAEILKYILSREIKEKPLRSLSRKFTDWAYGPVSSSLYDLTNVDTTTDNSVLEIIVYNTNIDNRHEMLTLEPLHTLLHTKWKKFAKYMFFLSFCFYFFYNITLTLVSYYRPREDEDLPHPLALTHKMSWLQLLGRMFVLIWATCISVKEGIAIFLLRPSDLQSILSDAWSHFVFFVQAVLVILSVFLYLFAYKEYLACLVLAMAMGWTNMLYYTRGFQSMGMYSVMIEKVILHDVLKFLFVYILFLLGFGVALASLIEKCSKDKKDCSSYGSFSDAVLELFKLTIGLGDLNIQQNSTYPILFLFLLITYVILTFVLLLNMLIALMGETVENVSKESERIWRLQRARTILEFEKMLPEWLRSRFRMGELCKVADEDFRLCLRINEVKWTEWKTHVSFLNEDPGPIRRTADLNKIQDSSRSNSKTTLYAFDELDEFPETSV
Experimental: (§1) All channel constructs were expressed in Xenopus laevis oocytes and studied using the two-electrode voltage clamp technique (TEVC) following 1–4 days of incubation after cRNA injection. The animal care and experimental procedures were performed in accordance with the Guide for the Care and Use of Laboratory Animals and were approved by the Animal Care and Use Committee of the National Institute of Neurological Disorders and Stroke (Animal protocol number 1253–17). Oocytes were removed surgically and incubated with agitation for 1 hr in a solution containing (in mM) 82.5 NaCl, 2.5 KCl, 1 MgCl2, 5 HEPES, pH 7.6 (with NaOH), and collagenase (2 mg/ml; Worthington Biochemical, Lakewood, NJ). Defolliculated oocytes were injected with cRNA for each of the constructs and incubated at 17°C in a solution containing (in mM) 96 NaCl, 2 KCl, 1 MgCl2, 1.8 CaCl2, 5 HEPES, pH 7.6 (with NaOH), and gentamicin (50 μg/ml, GIBCO-BRL, Gaithersburg, MD). Oocyte membrane voltage was controlled using an OC-725C oocyte clamp (Warner Instruments, Hamden, CT). Data were filtered at 1–3 kHz and digitized at 20 kHz using pClamp software (Molecular Devices, Sunnyvale, CA) and a Digidata 1440A digitizer (Axon Instruments). Microelectrode resistances were 0.1–1 MΩ when filled with 3 M KCl. For recording TRP channel currents, the external recording solution contained (in mM) 100 KCl, 10 HEPES, pH 7.6 (with KOH). […]

[2] = molecular target: T2, TRPV3-6M/4PM (Mus musculus, UniProt Q8K424, A560T/F522S/F625L/F656I/F666Y/H523E/L557M/Q580E/V587L/W521Y); test: Two-electrode voltage clamp, TRPV3-6M/4PM in oocytes; assay type: cell-based; settings: RTx 100 nM, 2-APB 3 mM, +60 mV
T2 construct: expressed in transfected cells; host or cells: Xenopus laevis oocytes
T2 sequence (Q8K424 1-791 W521Y/F522S/H523E/L557M/A560T/Q580E/V587L/F625L/F656I/F666Y): T1 sequence (Q8K424 1-791 F522S/L557M/A560T/Q580E) with W521Y, H523E, V587L, F625L, F656I, F666Y
Experimental: as §1

[3] = system: TRPV3-6M + L596V, L599F, S613K, D618P, S620E, I644F, Q646E, P651K, L653V, I659L or T660A; test: Two-electrode voltage clamp, TRPV3-6M with individual pore mutations (no RTx response); assay type: cell-based, mouse; settings: RTx 100 nM, 2-APB 3 mM, room temperature
Experimental: as §1

Compound | channel activation (current response) [1] | response to RTx compared with maximal response to 2-APB [2] | channel activation (current response) [3]
C=C(C)[C@]12C[C@@H](C)[C@@]34O[C@](Cc5ccccc5)(O[C@@H]1[C@@H]3C=C(COC(=O)Cc1ccc(O)c(OC)c1)C[C@]1(O)C(=O)C(C)=C[C@@H]41)O2 [RTx, resiniferatoxin] | not by 100 nM RTx | similar | RTx-insensitive
NCCOB(c1ccccc1)c1ccccc1 [2-APB, 2-aminoethoxydiphenyl borate] | activated | – | still activated
